Laboratory results taken from US10729785B2, “Particles comprising protamine and RNA in combination with endosome destabilizing agents” (BioNTech SE, priority 2014, dated 2020).

Tested on: fresh human red blood cells
Assay: Validation of EDA: lysis of red blood cells at acidic pH (OD 405 nm of supernatant as surrogate of hemoglobin content)
Type: cell-based
Settings: pH below 6, 7 hours; for damage of red blood cells / destabilization of cell membranes (OD 405 nm, hemoglobin content): 6 micrograms of peptide, 3 million human red blood cells in PBS, 37° C.

GLFEAIEGFIENGWEGLAEALAEALEALAAGGSC (Peptide 2) [Peptide derived from Influenza virus hemagglutinin, used as endosome destabilizing agent]
damage of red blood cells / destabilization of cell membranes (OD 405 nm, hemoglobin content): damages red blood cells | relative efficacy in damaging red blood cells (peptide 2 compared with peptide 1): more efficacious than peptide 1

GLFEAIEGFIENGWEGMIDGWYG [peptide 1]
damage of red blood cells / destabilization of cell membranes (OD 405 nm, hemoglobin content): damages red blood cells
